# Patent US7538123B2, “Indole derivative having piperidine ring” (Eisai R & D Management Co., Ltd., priority 2004, dated 2009)
# Target: T1, serotonin 1A receptor (Mus musculus, UniProt Q64264)
# T1 construct: into the rectum of CD-1 (ICR) male mice (25-45 g); from tissue; host or cells: living CD-1 (ICR) male mice (whole animal)
# T1 sequence (Q64264 1-421): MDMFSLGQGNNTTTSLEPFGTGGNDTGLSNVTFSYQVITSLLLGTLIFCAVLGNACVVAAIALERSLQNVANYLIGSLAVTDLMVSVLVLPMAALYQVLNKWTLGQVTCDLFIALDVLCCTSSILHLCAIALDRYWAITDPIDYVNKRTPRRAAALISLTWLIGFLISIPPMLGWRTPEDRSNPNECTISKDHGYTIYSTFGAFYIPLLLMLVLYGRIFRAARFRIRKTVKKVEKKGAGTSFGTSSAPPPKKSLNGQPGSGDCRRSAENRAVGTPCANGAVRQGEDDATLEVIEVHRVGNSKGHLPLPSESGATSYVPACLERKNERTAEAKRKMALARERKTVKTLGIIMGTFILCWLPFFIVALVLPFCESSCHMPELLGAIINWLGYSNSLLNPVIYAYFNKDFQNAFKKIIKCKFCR
# Assay: Antagonistic effect on serotonin 1A receptor agonist-induced hypothermia in mouse
# Type: in vivo
# Details: sc
# Method: (1) A thermistor probe was inserted at a depth of approximately 2 cm into the rectum of CD-1 (ICR) male mice (25-45 g), so as to measure the body temperature thereof. Body temperature is decreased by subcutaneous administration of serotonin 1A receptor agonist (8-hydroxy-dipropylaminotetralin) 0.5 mg/kg. Since a serotonin 1A antagonist inhibits such action, the antagonistic effect of a test substance to a serotonin 1A receptor was evaluated using the inhibitory effect of the hypothermia as an index. A test substance was administered 15 minutes before the administration of the serotonin 1A agonist. A serotonin 1A partial agonist alone decreases the body temperature, depending on the degree of the agonistic action thereof. In addition, it has a weak antagonistic effect on 8-hydroxy-dipropylaminotetralin-induced hypothermia. (2) Results
row,Structure (SMILES),ED50 [mg/kg]
1,"COc1cc2cccnc2cc1CCN1CCC(n2ccc3ccc(C(N)=O)cc32)CC1 [Compound 51, 1-{1-[2-(6-methoxyquinolin-7-yl)ethyl]piperidin-4-yl}-1H-indole-6-carboxamide]",0.66

# Same assay, conditions: sc, 15 minutes before 8-hydroxy-dipropylaminotetralin 0.5 mg/kg sc, inhibition of hypothermia, CD-1 (ICR) male mice, read-out: ED50
row,ED50 [mg/kg],Structure (SMILES)
1,0.1,"COc1cc2c(cc1CCN1CCC(n3ccc4ccc(C(N)=O)cc43)CC1)N(C)C(=O)CC2 [Compound 57, 1-{1-[2-(6-methoxy-1-methyl-2-oxo-1,2,3,4-tetrahydroquinolin-7-yl)ethyl]piperdin-4-yl}-1H-indole-6-carboxamide]"
2,0.3,"COc1ccc2c(c1CCN1CCC(n3ccc4ccc(C(N)=O)cc43)CC1)OCCC2O (stereo not drawn) [Compound 46, 1-{1-[2-(4-hydroxy-7-methoxychroman-8-yl)ethyl]piperidin-4-yl}-1H-indole-6-carboxamide]"
3,0.1,"COc1ccc2c(c1CCN1CCC(n3ccc4ccc(C(N)=O)cc43)CC1)OC(C)(C)CC2=O [Compound 22, 1-{1-[2-(7-methoxy-2,2-dimethyl-4-oxochroman-8-yl)ethyl]piperidin-4-yl}-1H-indole-6-carboxamide]"
4,0.35,"CCc1nc2cc(CCN3CCC(n4ccc5ccc(C(N)=O)cc54)CC3)c(OC)cc2o1 [Compound 6, 1-{1-[2-(2-ethyl-6-methoxybenzoxazol-5-yl)ethyl]piperidin-4-yl}-1H-indole-6-carboxamide]"
5,0.53,"CNC(=O)c1ccc2ccn(C3CCN(CCc4cc5c(cc4OC)CCC(=O)N5C)CC3)c2c1 [Compound 58, 1-{1-[2-(6-methoxy-1-methyl-2-oxo-1,2,3,4-tetrahydroquinolin-7-yl)ethyl]piperidin-4-yl}-N-methyl-1H-indole-6-carboxamide]"
6,0.18,"COc1ccc2nc(C)oc2c1CCN1CCC(n2ccc3ccc(C(N)=O)cc32)CC1 [Compound 3, 1-{1-[2-(6-methoxy-2-methylbenzoxazol-7-yl)ethyl]piperidin-4-yl}-1H-indole-6-carboxamide]"
7,0.04,"COc1ccc2c(c1CCN1CCC(n3ccc4ccc(C(N)=O)cc43)CC1)OCCO2 [Compound 32, 1-{1-[2-(6-methoxy-2,3-dihydrobenz[1,4]dioxin-5-yl)ethyl]piperidin-4-yl}-1H-indole-6-carboxamide]"
8,0.04,"COc1cc2c(cc1CCN1CCC(n3ccc4ccc(C(N)=O)cc43)CC1)OCCO2 [Compound 31, 1-{1-[2-(7-methoxy-2,3-dihydrobenz[1,4]dioxin-6-yl)ethyl]piperidin-4-yl}-1H-indole-6-carboxamide]"
9,0.42,"COc1ccc2sc(C)nc2c1CCN1CCC(n2ccc3ccc(C(N)=O)cc32)CC1 [Compound 27, 1-{1-[2-(5-methoxy-2-methylbenzothiazol-4-yl)ethyl]piperidin-4-yl}-1H-indole-6-carboxamide]"
10,0.1,"COc1cc2oc(C)nc2cc1CCN1CCC(n2ccc3ccc(C(N)=O)cc32)CC1 [Compound 4, 1-{1-[2-(6-methoxy-2-methylbenzoxazol-5-yl)ethyl]piperidin-4-yl}-1H-indole-6-carboxamide]"
11,0.03,"CNC(=O)c1ccc2ccn(C3CCN(CCc4c(OC)ccc5c4OC(C)(C)CC5=O)CC3)c2c1 [Compound 20, 1-{1-[2-(7-methoxy-2,2-dimethyl-4-oxochroman-8-yl)ethyl]piperidin-4-yl}-N-methyl-1H-indole-6-carboxamide]"
12,0.26,"COc1cc2ccccc2cc1CCN1CCC(n2ccc3ccc(C(N)=O)cc32)CC1 [Compound 45, 1-{1-[2-(3-methoxynaphthalen-2-yl)ethyl]piperidin-4-yl}-1H-indole-6-carboxamide]"
13,0.21,"COc1ccc2c(c1CCN1CCC(n3ccc4ccc(C(N)=O)cc43)CC1)OCCC2=O [Compound 47, 1-{1-[2-(7-methoxy-4-oxochroman-8-yl)ethyl]piperidin-4-yl}-1H-indole-6-carboxamide]"
14,0.12,"COc1cc2c(cc1CCN1CCC(n3ccc4ccc(C(N)=O)cc43)CC1)C(=O)N(C)CC2 [Compound 33, 1-{1-[2-(6-methoxy-2-methyl-1-oxo-1,2,3,4-tetrahydroisoquinolin-7-yl)ethyl]piperidin-4-yl}-1H-indole-6-carboxamide]"
15,0.3,"CCN1C(=O)CCc2cc(OC)c(CCN3CCC(n4ccc5ccc(C(N)=O)cc54)CC3)cc21 [Compound 59, 1-{1-[2-(1-ethyl-6-methoxy-2-oxo-1,2,3,4-tetrahydroquinolin-7-yl)ethyl]piperidin-4-yl}-1H-indole-6-carboxamide]"
16,0.3,"COc1cc2c(cc1CCN1CCC(n3ccc4ccc(C(N)=O)cc43)CC1)C(=O)CC(C)(C)O2 [Compound 24, 1-{1-[2-(7-methoxy-2,2-dimethyl-4-oxochroman-6-yl)ethyl]piperidin-4-yl}-1H-indole-6-carboxamide]"
17,0.24,CCc1nc2ccc(OC)c(CCN3CCC(n4ccc5ccc(C(N)=O)cc54)CC3)c2o1 [Compound 5]
18,0.28,"COc1ccc2c(c1CCN1CCC(n3ccc4ccc(C(N)=O)cc43)CC1)CCC2O (stereo not drawn) [Compound 49, 1-{1-[2-(1-hydroxy-5-methoxyindan-4-yl)ethyl]piperidin-4-yl}-1H-indole-6-carboxamide]"
19,0.25,"COc1cc2c(cc1CCN1CCC(n3ccc4ccc(C(N)=O)cc43)CC1)C(=O)CC2 [Compound 26, 1-{1-[2-(6-methoxy-3-oxoindan-5-yl)ethyl]piperidin-4-yl}-1H-indole-6-carboxamide]"
20,0.84,"COc1ccc2c(c1CCN1CCC(n3ccc4ccc(C(N)=O)cc43)CC1)CCCN2C(C)=O [Compound 54, 1-{1-[2-(1-acetyl-6-methoxy-1,2,3,4-tetrahydroquinolin-5-yl)ethyl]piperidin-4-yl}-1H-indole-6-carboxamide]"
21,0.38,"COc1ccc2oc(C)nc2c1CCN1CCC(n2ccc3ccc(C(N)=O)cc32)CC1 [Compound 7, 1-{1-[2-(5-methoxy-2-methylbenzoxazol-4-yl)ethyl]piperidin-4-yl}-1H-indole-6-carboxamide]"
22,0.2,"COc1ccc2c(=O)ccoc2c1CCN1CCC(n2ccc3ccc(C(N)=O)cc32)CC1 [Compound 35, 1-{1-[2-(7-methoxy-4-oxo-4H-chromen-8-yl)ethyl]piperidin-4-yl}-1H-indole-6-carboxamide]"
23,0.52,"CCn1c(=O)oc2cc(OC)c(CCN3CCC(n4ccc5ccc(C(N)=O)cc54)CC3)cc21 [Compound 60, 1-{1-[2-(3-ethyl-6-methoxy-2-oxo-2,3-dihydrobenzoxazol-5-yl)ethyl]piperidin-4-yl}-1H-indole-6-carboxamide]"
